The values below come from ChEMBL document CHEMBL3046933, “Synthesis and evaluation of a series of aminocyanopyridines as antimicrobial agents” (2011).

Holding throughout (assay type): functional
In assay [1] the test system is Pseudomonas aeruginosa. The experiment in a line: Antibacterial activity against Pseudomonas aeruginosa […] by macrobroth dilution method.
In assay [2] the test system is Micrococcus luteus. In words: Antibacterial activity against Micrococcus luteus NRRLB 4375 at 100 ug/ml after 24 hr by disk diffusion method. The following applies: NRRLB 4375, 24 h, read-out: DIZ.
For assay [3], the system named is Micrococcus luteus. In words: Antibacterial activity against Micrococcus luteus NRRLB 4375 by macrobroth dilution method. For orientation: In broth dilution the organism is exposed to a series of concentrations in liquid medium.
Assay [4] deals with Pseudomonas aeruginosa. The experiment in a line: Antibacterial activity against Pseudomonas aeruginosa […] at 100 ug/ml after 24 hr by disk diffusion method. The settings on record: read-out: DIZ. On the technique in general: In agar diffusion tests the substance spreads into inoculated agar from a disc or well.
Assay [5] relates to Bacillus subtilis. The experiment in a line: Antibacterial activity against Bacillus subtilis RSKK 244 by macrobroth dilution method.
Assay [6] deals with Bacillus subtilis. The experiment in a line: Antibacterial activity against Bacillus subtilis RSKK 244 at 100 ug/ml after 24 hr by disk diffusion method. The following applies: RSKK 244, 24 h, read-out: DIZ.
A further assay deals with Priestia megaterium. In words: Antibacterial activity against Bacillus megaterium clinical isolate at 100 ug/ml after 24 hr by disk diffusion method. The settings on record: read-out: DIZ.
The test system of the next assay is Candida albicans. In words: Antifungal activity against Candida albicans ATCC 90028 at 100 ug/ml by disk diffusion method. The settings on record: read-out: DIZ.

Values after ≈ are worked out from the molar mass of the structure shown.

By MIC is commonly meant the lowest concentration found to suppress growth.

With `Cc1ccc(-c2c(C#N)c(N)nc3c2CCCC3)s1`, the minimum inhibitory concentration (MIC) in the assay on Pseudomonas aeruginosa [1] came to 12.5 µg/mL (≈ 46.4 µM); in the assay on Micrococcus luteus [3] it was 25 µg/mL (≈ 92.8 µM). The zone of inhibition at 100 µg/mL in the assay with Micrococcus luteus [2] was 12 mm; with Pseudomonas aeruginosa [4] it was 20 mm.

Take `Cc1ccc(-c2c(C#N)c(N)nc3c2CCCCC3)o1`: the MIC with Pseudomonas aeruginosa [1] and against Micrococcus luteus [3] was 25 µg/mL (≈ 93.5 µM) throughout. The figures for the zone of inhibition at 100 µg/mL with Micrococcus luteus [2] and in the assay with Pseudomonas aeruginosa [4] were 9 mm and 14 mm, respectively.

Consider `Cc1ccc(-c2c(C#N)c(N)nc3c2CCCC3)o1`, for which the zone of inhibition at 100 µg/mL in the assay with Micrococcus luteus [2] was 11 mm. In the assay on Micrococcus luteus [3], this compound showed an MIC of 37.5 µg/mL (≈ 148 µM).

In the case of `Cc1ccsc1-c1c(C#N)c(N)nc2c1CCC2`, the values for the zone of inhibition at 100 µg/mL in the assay on Micrococcus luteus [2] and with Bacillus subtilis [6] were 11 mm and 13 mm, respectively. The MIC with Bacillus subtilis [5] and against Micrococcus luteus [3] was 37.5 µg/mL (≈ 147 µM) in each case.

For the compound `Cc1ccsc1-c1c(C#N)c(N)nc2c1CCCC2`, the MIC stood at 25 µg/mL (≈ 92.8 µM) against Pseudomonas aeruginosa [1] and 37.5 µg/mL (≈ 139 µM) against Micrococcus luteus [3]. Also, the zone of inhibition at 100 µg/mL in the assay on Micrococcus luteus [2] and in the assay with Pseudomonas aeruginosa [4] was 9 mm throughout.

Regarding `Cc1ccsc1-c1c(C#N)c(N)nc2c1CCCCC2`, the minimum inhibitory concentration (MIC) against Pseudomonas aeruginosa [1] was found to be 12.5 µg/mL (≈ 44.1 µM); against Bacillus subtilis [5] it was 37.5 µg/mL (≈ 132 µM). Moreover, the zone of inhibition at 100 µg/mL in the assay with Bacillus subtilis [6] was found to be 10 mm; with Pseudomonas aeruginosa [4], 17 mm.

As for `Cc1ccc(-c2c(C#N)c(N)nc3c2CCC3)s1`, the minimal inhibitory concentration (MIC) turned out to be 25 µg/mL (≈ 97.9 µM) in the assay on Pseudomonas aeruginosa [1], 25 µg/mL (≈ 97.9 µM) in the assay on Bacillus subtilis [5] and 37.5 µg/mL (≈ 147 µM) with Micrococcus luteus [3]. Also, the zone of inhibition at 100 µg/mL came out at 12 mm with Micrococcus luteus [2], 15 mm in the assay with Bacillus subtilis [6] and 15 mm in the assay with Pseudomonas aeruginosa [4].

For the compound `Cc1ccc(-c2c(C#N)c(N)nc3c2CCCCC3)s1`, the minimum inhibitory concentration (MIC) with Pseudomonas aeruginosa [1] came to 25 µg/mL (≈ 88.2 µM); in the assay on Bacillus subtilis [5], 37.5 µg/mL (≈ 132 µM); with Micrococcus luteus [3], 25 µg/mL (≈ 88.2 µM). For the same compound, the values for the zone of inhibition at 100 µg/mL in the assay on Micrococcus luteus [2], in the assay on Bacillus subtilis [6] and with Pseudomonas aeruginosa [4] were 20 mm, 10 mm and 19 mm, respectively.

With `Cc1ccc(-c2c(C#N)c(N)nc3c2CCC3)o1`, the MIC amounted to 12.5 µg/mL (≈ 52.2 µM) against Pseudomonas aeruginosa [1], 12.5 µg/mL (≈ 52.2 µM) with Bacillus subtilis [5] and 25 µg/mL (≈ 104 µM) with Micrococcus luteus [3]. Also, the zone of inhibition at 100 µg/mL in the assay on Micrococcus luteus [2] was found to be 15 mm; with Bacillus subtilis [6], 22.5 mm; in the assay with Pseudomonas aeruginosa [4] it was 17 mm.

Consider `CC1(C)S[C@@H]2[C@H](NC(=O)[C@H](N)c3ccccc3)C(=O)N2[C@H]1C(=O)O` [AMPICILLIN], for which the zone of inhibition at 100 µg/mL with Micrococcus luteus [2] is 31 mm; with Bacillus subtilis [6] it was 15 mm; with Priestia megaterium, 10 mm. The same compound gave an MIC against Micrococcus luteus [3] of 8 µg/mL (≈ 22.9 µM).

Take `OC(Cn1cncn1)(Cn1cncn1)c1ccc(F)cc1F` [FLUCONAZOLE]: the MIC in the assay with Micrococcus luteus [3] worked out at 8 µg/mL (≈ 26.1 µM).

On to `CC(=O)N1CCN(c2ccc(OCC3COC(Cn4ccnc4)(c4ccc(Cl)cc4Cl)O3)cc2)CC1` (stereo not drawn) [KETOCONAZOLE], for which, in the assay with Candida albicans, the zone of inhibition at 100 µg/mL turned out to be 16 mm.

`CC1(C)S[C@@H]2[C@H](NC(=O)Cc3ccccc3)C(=O)N2[C@H]1C(=O)O` [PENICILLIN G]: the zone of inhibition at 100 µg/mL in the assay on Micrococcus luteus [2] was 9 mm.

`CN(C)[C@@H]1C(O)=C(C(N)=O)C(=O)[C@@]2(O)C(O)=C3C(=O)c4c(O)cccc4[C@@](C)(O)[C@H]3C[C@@H]12` [TETRACYCLINE]: in the assay with Micrococcus luteus [2], the zone of inhibition at 100 µg/mL was found to be 28 mm.
